Data on one compound can be found in patent US12551447B2, “Combination solid oral dosage forms of gonadotropin-releasing hormone antagonists” (Sumitomo Pharma Co., Ltd., priority 2020, dated 2026).

The data set can be described thus: BioPharmaceutical Classification System (BCS) solubility and permeability class. The conditions noted are these: BCS 4 = poorly soluble and poor permeability. Format: physicochemical. The procedure: The BioPharmaceutical Classification System (BCS) classifies drug substances as to their solubility and permeability. For example, a drug substance is considered highly soluble when the highest dose strength is soluble in ≤250 ml water over a pH range of 1-7, and highly permeable when the extent of absorption in humans is determined to be >90% of an administered dose, in comparison to an intravenous reference dose. A BCS 1 compound is highly soluble and highly permeable, while a BCS 4 compound is poorly soluble and has poor permeability. For BCS 4 compounds, bioavailability and the pharmacokinetic (PK) profile or parameters, such as mean maximum plasma concentration (Cmax), mean time to maximum plasma concentration (Tmax) and mean area under the plasma concentration vs. time curve (AUC) after oral administration, can be positively or negatively impacted by the formulation, the type of the excipients selected and the specific excipients. The safety and efficacy of the fixed combination oral product depends on these PK parameters being in the appropriate range. Compound 1 is a BCS 4 compound and therefore for fixed combination oral products having compound 1, or a corresponding amount of a pharmaceutically acceptable salt thereof, the type and specifics of the excipients must be carefully selected so as to achieve the target pharmacokinetic parameters.

Structures are written as SMILES.

For the compound `CONC(=O)Nc1ccc(-c2sc3c(c2CN(C)C)c(=O)n(-c2ccc(OC)nn2)c(=O)n3Cc2c(F)cccc2F)cc1` [Compound 1, N-(4-(1-(2,6-difluorobenzyl)-5-((dimethylamino)methyl)-3-(6-methoxy-3-pyr-idazinyl)-2,4-dioxo-1,2,3,4-tetrahydrothieno[2,3-d]pyrimidin-6-yl)phenyl)-N′-methoxyurea], the BCS class result is on record as “BCS 4”.
